Measurements taken from US10821079B2, “PKC activators and combinations thereof” (Cognitive Research Enterprises, Inc., priority 2011, dated 2020).

Legend:
PKC-ε = PKC-ε translocation to membrane in SH-SY5Y cells (Western blot); assay type: cell-based, human
Procedure: Cells were harvested in homogenizing buffer containing 10 mM Tris-Cl (pH 7.4), 1 mM PMSF (phenylmethylsulfonyl fluoride), 1 mM EGTA, 1 mM EDTA, 50 mM NaF, and 20 μM leupeptin and were lysed by sonication. The homogenate was centrifuged at 100,000×g for 15 min at 4° C. to obtain the cytosolic fraction (supernatant) and membrane (pellet). The pellet was resuspended in the homogenizing buffer by sonication. Protein concentration was measured using the Coomassie Plus (Bradford) Protein Assay kit (Pierce, USA). Following quantification, 20 μg of protein from each sample was subjected to SDS-PAGE analysis in 4-20% gradient Tris-Glycine gel (Invitrogen, USA). The separated protein was then transferred to nitrocellulose membrane. The membrane was blocked with BSA at room temperature for 15 min and was incubated with primary antibody over night at 4° C. After the incubation, it was washed three times with TBS-T (Tris Buffered saline-Tween 20) and further incubated with alkaline phosphatase conjugated secondary antibody (Jackson Immunoresearch Laboratories, USA) at 1:10,000 dilution for 45 min. The membrane was finally washed three times with TBS-T and developed using the 1-step NBT-BCIP substrate (Pierce, USA). Western Blot was imaged in the ImageQuant RT-ECL (GE Life Sciences, Piscataway, N.J.) and densitometric quantification was performed using the IMAL software (Blanchette Rockefeller Neurosciences Institute, Morgantown, W. Va.). For translocation assays, PKC activation was represented as the percentage of total protein in the membrane (membrane/cytosol+membrane).
Equal amounts of proteins were loaded in each lane (20 μg) for both the cytosol and membrane fractions. Activation of PKC was calculated as the percentage of total PKC in the membrane (membrane/cytosol+membrane).

[1] = system: SH-SY5Y neuroblastoma cells; assay: Neuronal and synaptic marker expression in cells treated with RA and Bryostatin-1 (immunofluorescence, immunoblot); assay type: cell-based, human
Procedure: Human SH-SY5Y neuroblastoma cells (ATCC) were cultured in 45% F12K, 45% minimum Eagle's medium, 10% fetal calf serum. […] For differentiation of SH-SY5Y cells were maintained at 2% serum and treated with 10 μM RA for 72 hr. […] Medium was changed every 3 days with fresh supplementation of RA. Rat hippocampal neurons from 18-day-old embryonic Sprague-Dawley rat brains were plated on 24-well plates coated with poly-D-lysine (Sigma-Aldrich) in neurobasal medium supplemented with B-27 containing 0.5 mM glutamine and 25 μM glutamate (Invitrogen). The neuronal cells were grown under 5% CO2 for 14 days in an incubator maintained at 37° C.
Cells were harvested in homogenizing buffer containing 10 mM Tris-Cl (pH 7.4), 1 mM PMSF (phenylmethylsulfonyl fluoride), 1 mM EGTA, 1 mM EDTA, 50 mM NaF, and 20 μM leupeptin and were lysed by sonication. […] Protein concentration was measured using the Coomassie Plus (Bradford) Protein Assay kit (Pierce, USA). Following quantification, 20 μg of protein from each sample was subjected to SDS-PAGE analysis in 4-20% gradient Tris-Glycine gel (Invitrogen, USA). […] Western Blot was imaged in the ImageQuant RT-ECL (GE Life Sciences, Piscataway, N.J.) and densitometric quantification was performed using the IMAL software (Blanchette Rockefeller Neurosciences Institute, Morgantown, W. Va.). […]

PKCα = PKCα (Homo sapiens, UniProt P17252); assay: Activation of purified PKC isozymes, radiometric: PKC-α; assay type: biochemical
Procedure: To measure PKC activity, 10 μg of protein from either cytosol or membrane was incubated for 15 min at 37° C. in the presence of 10 μM histones, 4.89 mM CaCl2, 1.2 μg/μl phosphatidyl-L-serine, 0.18 μg/μl 1,2-dioctanoyl-sn-glycerol, 10 mM MgCl2, 20 mM HEPES (pH 7.4), 0.8 mM EDTA, 4 mM EGTA, 4% glycerol, 8 μg/ml aprotinin, 8 μg/ml leupeptin, 2 mM benzamidine, and 0.5 μCi of [γ-^32P]ATP. [^32P]Phosphoprotein formation was measured by adsorption onto phosphocellulose as described previously. See Nelson et al. (2009) J Biol Chem 284, 34514-34521. For measurements of activation by RA, PKC activity was measured in the absence of diacylglycerol (DAG) and phosphatidylserine, as described by Nelson et al. (2009) J Biol Chem 284, 34514-34521. PKC-δ and PKC-ε were measured in the absence of added EGTA and CaCl^2, as described by Kanno et al. (2006) J Lipid Res 47, 1146-1156. The enzyme was provided as a purified isozyme for in vitro experiments.
To measure PKC, 10 μl of cell homogenate or purified PKC isoform was incubated for 15 min at 37° C. in the presence of 10 μM histones, 4.89 mM CaCl2, 1.2 μg/μl phosphatidyl-L-serine, 0.18 μg/μl 1,2-dioctanoyl-sn-glycerol, 10 mM MgCl2, 20 mM HEPES (pH 7.4), 0.8 mM EDTA, 4 mM EGTA, 4% glycerol, 8 μg/ml aprotinin, 8 μg/ml leupeptin, and 2 mM benzamidine. [γ32P]ATP (0.5 μCi) was added and 32P-phosphoprotein formation was measured by adsorption onto phosphocellulose as described previously. See Nelson et al., J. Neurochemistry, 1995, 65: 2350-2357.
PKC activity of each compound was measured in the absence of diacylglycerol and phosphatidylserine and PKC-δ and PKC-ε were measured in the absence of added EGTA and CaCl2, as described by Kanno et al., J. Lipid Res., 2006, 47: 1146-1156. Low concentrations of Ca^2+ were needed because high Ca^2+ can interact with the PKC phosphatidylserine binding site and prevents activation. […] To determine their PKC isoform specificity, the compounds were pre-incubated with purified isoforms of PKC for five minutes and the PKC activity was measured radiometrically.
The activation and PKC isozyme specificity of DCPLA-ethyl ester was measured following the procedures in Example 1(B) and (C), except that 9 ng of the purified isozyme was used and it was pre-incubated for 5 minutes at room temperature (FIG. 3). PKC-ε activation by DCPLA-tert-butyl ester and DCPLA-retinyl ester was measured in the same manner as DCPLA-ethyl ester (FIG. 3).

effect on PKC-α (in words) (PKCα) | Compound | PKC-ε translocation over time (in words) (PKC-ε; 0.27 nM, 0-60 min) | increase of synaptophysin expression (immunoblot) ([1]; alone, 72 hr) [%] | PKC-ε translocation (in words) (PKC-ε; Aβ1-42 monomers 1 μM, DCPLA-ME added to ASPD-treated cells) | change in synaptophysin or PSD-95 (in words) ([1]; RA only)
– | CCC/C=C/C=C/C(=O)O[C@H]1/C(=C/C(=O)OC)C[C@H]2C[C@H]([C@@H](C)O)OC(=O)C[C@H](O)C[C@@H]3C[C@H](OC(C)=O)C(C)(C)C(O)(C[C@@H]4C/C(=C/C(=O)OC)C[C@H](/C=C/C(C)(C)[C@]1(O)O2)O4)O3 [Bryostatin-1] | remained activated at 60 min | 50 | – | –
did not have a major effect | CCCCCC1CC1CC1CC1CCCCCCCC(=O)OC (stereo not drawn) [DCPLA-ME, methyl 8-(2-((2-pentylcyclopropyl)methyl)cyclopropyl)octanoate] | – | – | restored PKC-ε translocation to normal | –
not activated | CC1=C(/C=C/C(C)=C/C=C/C(C)=C/C(=O)O)C(C)(C)CCC1 [RA, All-trans retinoic acid] | – | – | – | did not show much change
